Measured values as given in patent publication US9115133B2, “Substituted fused tricyclic compounds, compositions and medicinal applications thereof” (Advinus Therapeutics Limited, priority 2011, dated 2015).

Columns and labels:
Format in all cases: biochemical
Settings in all cases: 200 μg/ml Poly Glu-Tyr (4:1), ATP 1 uM, 90 min room temperature, luminescence
[1] = biological target: T1, Recombinant JAK1 (Amino acids 850-1154) (Homo sapiens, UniProt P23458); assay: Kinase-Glo Luminescent Kinase Assay, recombinant JAK1
T1 construct: Recombinant JAK1 (Amino acids 850-1154; NM_002227.2); made in house; host or cells: baculovirus expression system (Bac-to-Bac)
Summary of the method: (§1)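 Baculovirus-expressed kinase domains were pre-incubated 5 min with compound (1% DMSO), then reacted 90 min at room temperature with 200 μg/ml poly Glu-Tyr (4:1) and 1 uM ATP in 50 mM HEPES pH 7.4, 5 mM MgCl2. Remaining ATP was read by Kinase-Glo luminescence. IC50 came from four-parameter logistic fits.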

[2] = biological target: T2, Recombinant JAK2 (Amino acids 808-1132) (Homo sapiens, UniProt O60674); assay: Kinase-Glo Luminescent Kinase Assay, recombinant JAK2
T2 construct: JAK2 (Amino acids 808-1132; NM_004972.3); made in house; host or cells: baculovirus expression system (Bac-to-Bac)
Excerpt: Recombinant JAK1 (Amino acids 850-1154; NM_002227.2), JAK2 (Amino acids 808-1132; NM_004972.3) and JAK3 (Amino acids 781-1124; NM_000215.3) used in the studies were expressed using Invitrogen's Bac-to-Bac baculovirus expression system according to manufacturer's instructions. Adenosine 5′-triphosphate was obtained from Sigma Aldrich chemicals (Cat # A7699). Poly Glu-Tyr (4:1) sodium salt was obtained from Sigma Aldrich (Cat # P0275), Kinase Glo® Luminescent Kinase assay kit was obtained from Promega (Cat # V6713) Kinase activity was assessed by Promega Kinase-Glo® Luminescent Kinase Assay kit using 200 μg/ml Poly Glu-Tyr (4:1) as substrate and ATP at 1 uM concentration. The reactions were carried out in 384 well plates in total reaction volume of 20 uL. Reaction mixtures contained 50 mM HEPES pH 7.4, 5 mM MgCl2, 1 mM DTT, 0.01% BSA, 0.01% Tween 20. Kinase was pre-incubated with compounds or 1% DMSO for 5 min before addition of substrate and ATP to check for inhibition. Kinase reactions were carried out at room temperature for 90 min. The reactions were stopped by adding 5 μl of Kinase Glo® reagent & 10 μl of reaction mixture followed by measuring luminescence. The luminescent signal is correlated with the amount of ATP present at the end of kinase reaction and is inversely correlated with the amount of kinase activity. For each data point, % inhibition is calculated based on uninhibited reaction (without compound) which is considered as 100% activity over no enzyme or substrate controls. Dose response data is then fit using a four parameter logistic equation using Graph-pad Prism 5 software to determine inhibition constant 50 (IC50).

[3] = biological target: T3, Recombinant JAK3 (Amino acids 781-1124) (Homo sapiens, UniProt P52333); assay: Kinase-Glo Luminescent Kinase Assay, recombinant JAK3
T3 construct: JAK3 (Amino acids 781-1124; NM_000215.3); made in house; host or cells: baculovirus expression system (Bac-to-Bac)
Summary of the method: as §1

T2 sequence (O60674 808-1132): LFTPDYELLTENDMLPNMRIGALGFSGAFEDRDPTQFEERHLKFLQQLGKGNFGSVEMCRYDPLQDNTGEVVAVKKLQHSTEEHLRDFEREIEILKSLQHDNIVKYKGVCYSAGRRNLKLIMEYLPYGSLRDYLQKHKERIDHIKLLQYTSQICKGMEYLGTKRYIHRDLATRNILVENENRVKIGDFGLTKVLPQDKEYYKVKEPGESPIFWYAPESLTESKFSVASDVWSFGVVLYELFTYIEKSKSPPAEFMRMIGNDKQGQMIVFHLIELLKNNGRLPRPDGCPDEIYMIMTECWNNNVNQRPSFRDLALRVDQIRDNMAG
T1 sequence (P23458 850-1154): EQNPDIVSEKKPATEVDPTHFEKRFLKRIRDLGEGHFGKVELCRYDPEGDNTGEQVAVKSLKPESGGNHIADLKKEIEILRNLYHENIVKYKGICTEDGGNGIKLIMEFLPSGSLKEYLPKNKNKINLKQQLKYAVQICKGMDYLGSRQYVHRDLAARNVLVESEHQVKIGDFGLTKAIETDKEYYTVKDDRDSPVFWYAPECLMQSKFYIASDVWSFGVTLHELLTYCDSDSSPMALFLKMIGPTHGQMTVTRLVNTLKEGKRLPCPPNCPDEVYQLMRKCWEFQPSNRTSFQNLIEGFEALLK
T3 sequence (P52333 781-1124): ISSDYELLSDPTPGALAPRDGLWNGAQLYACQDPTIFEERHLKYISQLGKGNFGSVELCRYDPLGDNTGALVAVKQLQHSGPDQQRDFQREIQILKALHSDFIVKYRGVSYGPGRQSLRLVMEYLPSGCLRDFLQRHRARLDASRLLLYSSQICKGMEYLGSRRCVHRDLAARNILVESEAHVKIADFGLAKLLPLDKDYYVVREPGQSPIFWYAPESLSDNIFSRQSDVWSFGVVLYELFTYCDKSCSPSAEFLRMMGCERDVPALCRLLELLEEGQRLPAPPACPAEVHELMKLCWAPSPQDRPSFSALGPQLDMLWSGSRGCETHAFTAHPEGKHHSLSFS

SMILES	IC50 [1] [nM]	IC50 [2] [nM]	IC50 [3] [nM]
N#CCC(=O)N1CCCC(c2ccnc3cnc4[nH]ccc4c23)C1 (stereo not drawn) [Ex. 1, 3-oxo-3-[3-(3H-pyrrolo[3,2-f][1,7]naphthyridin-9-yl)-1-piperidyl]propanenitrile]	1 to 20	1 to 20	1 to 20
O=C(C1CCOC1)N1CCCC(c2ncnc3cnc4[nH]ccc4c23)C1 (stereo not drawn) [Ex. 26, [3-(3H-3,4,6,8-Tetraaza-cyclopenta[a]naphthalen-9-yl)-piperidin-1-yl]-(tetrahydro-furan-3-yl)-mathanone]	1 to 20	> 20	> 20
O=C(NC1CC1)C1CCN(c2ccnc3cnc4[nH]ccc4c23)C1 (stereo not drawn) [Ex. 85, N-cyclopropyl-1-(3H-pyrrolo[3,2-f][1,7]naphthyridin-9-yl)pyrrolidine-3-carboxamide]	> 20	> 20	> 20
CC(C)(C)OC(=O)N1CCCC(c2ncnc3cnc4[nH]ccc4c23)C1 (stereo not drawn) [Comp. 55, 3-(3H-3,4,6,8-Tetraaza-cyclopenta[a]naphthalen-9-yl)-piperidine-1-carboxylic acid tert-butyl ester]	1 to 20	> 20	> 20
CS(=O)(=O)N1CCC(c2ccnc3cnc4[nH]ccc4c23)C1 (stereo not drawn) [Ex. 20, 9-(1-methylsulfonylpyrrolidin-3-yl)-3H-pyrrolo[3,2-f][1,7]naphthyridine]	1 to 20	1 to 20	> 20
O=C(CC(F)(F)F)N1CCCC(c2ncnc3cnc4[nH]ccc4c23)C1 (stereo not drawn) [Ex. 24, 3,3,3-Trifluoro-1-[3-(3H-3,4,6,8-tetraazacyclopenta[a]naphthalen-9-yl)-piperidin-1-yl]-propan-1-one]	1 to 20	1 to 20	> 20
N#CCS(=O)(=O)N1CCC(c2ccnc3cnc4[nH]ccc4c23)C1 (stereo not drawn) [Ex. 16, 2-[3-(3H-pyrrolo[3,2-f][1,7]naphthyridin-9-yl)pyrrolidin-1-yl]sulfonylacetonitrile]	1 to 20	1 to 20	> 20
CCNC(=O)C1CCCN(c2ccnc3cnc4[nH]ccc4c23)C1 (stereo not drawn) [Ex. 72, N-ethyl-1-(3H-pyrrolo[3,2-f][1,7]naphthyridin-9-yl)piperidine-3-carboxamide]	> 20	> 20	> 20
CCNC(=O)N1CCCC(c2ccnc3cnc4[nH]ccc4c23)C1 (stereo not drawn) [Ex. 48, N-ethyl-3-(3H-pyrrolo[3,2-f][1,7]naphthyridin-9-yl)piperidine-1-carboxamide]	> 20	> 20	> 20
N#CCC(=O)N1CCN(c2ccnc3cnc4[nH]ccc4c23)CC1 [Ex. 102, 3-oxo-3-[4-(3H-pyrrolo[3,2-f][1,7]naphthyridin-9-yl)piperazin-1-yl]propanenitrile]	> 20	> 20	> 20
CCS(=O)(=O)N1CCCC(c2ccnc3cnc4[nH]ccc4c23)C1 (stereo not drawn) [Ex. 9, 9-(1-ethylsulfonyl-3-piperidyl)-3H-pyrrolo[3,2-f][1,7]naphthyridine]	1 to 20	1 to 20	1 to 20
CC(C)CNC(=O)N1CCCC(c2ccnc3cnc4[nH]ccc4c23)C1 (stereo not drawn) [Ex. 49, N-isobutyl-3-(3H-pyrrolo[3,2-f][1,7]naphthyridin-9-yl)piperidine-1-carboxamide]	> 20	> 20	> 20
N#C/N=C(\CC(F)(F)F)N1CCC(c2ccnc3cnc4[nH]ccc4c23)C1 (stereo not drawn) [Ex. 45, (E)-[3,3,3-trifluoro-1-[3-(3H-pyrrolo[3,2-f][1,7]naphthyridin-9-yl)pyrrolidin-1-yl]propylidene]cyanamide]	1 to 20	1 to 20	> 20
O=C(CC(F)(F)F)N1CCC(c2ccnc3cnc4[nH]ccc4c23)C1 (stereo not drawn) [Ex. 15, 3,3,3-trifluoro-1-[3-(3H-pyrrolo[3,2-f][1,7]naphthyridin-9-yl)pyrrolidin-1-yl]propan-1-one]	1 to 20	1 to 20	> 20
O=C(C1CC1)N1CCCC(c2ncnc3cnc4[nH]ccc4c23)C1 (stereo not drawn) [Ex. 29, Cyclopropyl-[3-(3H-3,4,6,8-tetraaza-cyclopenta[a]naphthalen-9-yl)-piperidin-1-yl]-methanone]	> 20	> 20	> 20

Now from value to compound:

IC50 [1] [nM]	IC50 [2] [nM]	IC50 [3] [nM]	SMILES
1 to 20	1 to 20	< 1	N#CCC(=O)N1CCC[C@@H](c2ccnc3cnc4[nH]ccc4c23)C1 [Ex. 1B, (S)3-oxo-3-[3-(3H-pyrrolo[3,2-f][1,7]naphthyridin-9-yl)-1-piperidyl]propanenitrile]
> 20	> 20	> 20	N#CCC(=O)N1CCC[C@@H](c2ncnc3cnc4[nH]ccc4c23)C1 [Ex. 23A, (R)3-Oxo-3-[3-(3H-3,4,6,8-tetraazacyclopenta[a]naphthalen-9-yl)-piperidin-1-yl]-propionitrile]
> 20	> 20	> 20	N#CCC(=O)N1CCC[C@H](c2ccnc3cnc4[nH]ccc4c23)C1 [Ex. 1A, (R)3-oxo-3-[3-(3H-pyrrolo[3,2-f][1,7]naphthyridin-9-yl)-1-piperidyl]propanenitrile]
> 20	> 20	> 20	CC(C)/C(=N\C#N)N1CCC[C@H](c2ccnc3cnc4[nH]ccc4c23)C1 [Ex. 43A, (R)(E)-[2-methyl-1-[3-(3H-pyrrolo[3,2-f][1,7]naphthyridin-9-yl)-1-piperidyl]propylidene]cyanamide]
> 20	> 20	> 20	N#CCC(=O)N1CC[C@H](c2ccnc3cnc4[nH]ccc4c23)C1 [Ex. 14A, (R)3-oxo-3-[3-(3H-pyrrolo[3,2-f][1,7]naphthyridin-9-yl)pyrrolidin-1-yl]propanenitrile]
